We go through 12 molecules from article PMC7762591, “AmOctα2R: Functional Characterization of a Honeybee Octopamine Receptor Inhibiting Adenylyl Cyclase Activity” (International Journal of Molecular Sciences, 2020).

One experiment deals with DmOctα2R. Also noted: method as in PMID 28942992. The note with it: dose-dependent activation of DmOctα2R; cited from earlier work.
Experiment [1] deals with T1, AmOctα2R-HA (Apis mellifera, UniProt A0A7M7FZR9). Put plainly: Agonist effects on NKH 477-stimulated cAMP (Fluo-4 Ca2+ fluorescence via co-expressed CNG channel) in AmOctα2R-HA-expressing flpTM cells. Type of experiment: cell-based. The note with it: for effect on NKH 477-stimulated cAMP production (Ca2+-dependent fluorescence signal): biogenic amines 10^−6 M each. As for the experimental part:
(§1) For AmOctα2R-HA expression and pharmacological analysis, we used a human embryonic kidney (HEK293; flpIn cells; Invitrogen/ThermoFisher Scientific; #750-07)-based cell line that was transfected with a gene encoding a variant of the A2-subunit of the olfactory CNG ion channel (flpTM cells), provided by Sibion biosciences, Jülich, Germany. These flpTM cells were transfected with 3 µg, 8 µg, or 12 µg of the pcAmOctα2R-HA construct by a modified calcium phosphate method following a previously established protocol. Transfected cells were selected in the presence of the antibiotics G418 (1 mg/mL) and hygromycin (100 µg/mL). Expression of AmOctα2R-HA was monitored by Western blotting and immunocytochemistry using anti-HA antibodies (Roche/Sigma-Aldrich/Merck).
(§2) A stably transfected cell line was used to examine AmOctα2R-HA receptor activity by Ca^2+ imaging. Control measurements were performed in the parental (flpTM) cell line. Changes in [cAMP]i were registered indirectly via co-expressed CNG channels that were opened by cAMP and cause an influx of extracellular Ca^2+ [30, 32, 48]. Changes in [Ca^2+]i were monitored with the Ca^2+-sensitive fluorescent dye Fluo-4. Cells were grown in 96-well dishes to a density of approximately 2 × 10^4 cells per well and were loaded at room temperature with Fluo-4 AM as described previously. After 90 min, the loading solution was substituted with a dye-free extracellular solution (ECS; 120 mM NaCl, 5 mM KCl, 2 mM MgCl2, 2 mM CaCl2, 10 mM HEPES, and 10 mM glucose, pH 7.4 (NaOH)) containing 100 µM IBMX. The plate was transferred into a fluorescence reader (FLUOstar Omega, BMG Labtech, Ortenberg, Germany) to monitor Fluo-4 fluorescence. The excitation wavelength was 485 nm. Fluorescence emission was detected at 520 nm. Concentration series of various biogenic amines and synthetic receptor ligands were added, once Fluo-4 fluorescence intensity reached a stable value in each well. The changes in Fluo-4 fluorescence were recorded automatically. Concentration–response curves were established from at least three independent experiments with quadruplicate measurements.

The target of experiment [2] is T1, AmOctα2R-HA. Put plainly: Antagonist concentration-response on octopamine-activated AmOctα2R-HA in flpTM cells. Type of experiment: cell-based. As for the experimental part: as §1, §2
Table S3. Mean values for half-maximal inhibition (IC50 [M] and log IC50 ± SD) for substances with antagonistic activity on octopamine-activated AmOctα2R. For each substance at least […] independent experiments with quadruplicate measurements were performed. Values were obtained from non-linear fitting of the data from concentration-response curves (GraphPad Prism 5.04).
Substance IC50 [M] log IC50 […]
Biol Direct. 2008, 3, 20. […]
Int.

For experiment [3], the target named is T1, AmOctα2R-HA. In words: Antagonist concentration-response on tyramine-activated AmOctα2R-HA in flpTM cells. The class given is cell-based. As for the experimental part: The ability of various potential antagonists for impairing AmOctα2R-HA activity was assessed in a similar way. […] Ligand concentrations that led to the half-maximal inhibition of AmOctα2R-HA (IC50) were determined from the concentration–response curves and are summarized in Table 2.
as §1, §2

Experiment [4] has as its system nontransfected flpTM cells. In words: Control measurements of Fluo-4 fluorescence in nontransfected (parental) flpTM cells. Type of experiment: cell-based, human. As for the experimental part:
as §1
A stably transfected cell line was used to examine AmOctα2R-HA receptor activity by Ca^2+ imaging. […] Changes in [Ca^2+]i were monitored with the Ca^2+-sensitive fluorescent dye Fluo-4. […] The plate was transferred into a fluorescence reader (FLUOstar Omega, BMG Labtech, Ortenberg, Germany) to monitor Fluo-4 fluorescence. […] Fluorescence emission was detected at 520 nm. Concentration series of various biogenic amines and synthetic receptor ligands were added, once Fluo-4 fluorescence intensity reached a stable value in each well. The changes in Fluo-4 fluorescence were recorded automatically. […]

Setting [5] is: log of IC50 in M, octopamine-activated (3 × 10^−7 M octopamine), read-out: log IC50 ± SD (converted).
The mark [6] stands for this setting: log of IC50 in M, tyramine-activated (10 µM tyramine), read-out: logIC50 ± SD (converted).
[7] abbreviates: tyramine-activated (10 µM tyramine).
Setting [8] is: log of EC50 in M, mean of all experiments, octopamine n = 7, tyramine n = 11, read-out: logEC50 ± SD, mean value (converted).
Setting [9] is: log of EC50 in M, single concentration-response curve (Figures 4 and 6), read-out: logEC50 ± SD, typical experiment (converted).
Setting [10] is: mean of all experiments, octopamine n = 7, tyramine n = 11, 10 µM NKH 477, 100 µM IBMX, read-out: EC50 [M], mean value for half-maximal stimulation.
[11] abbreviates: single concentration-response curve (Figures 4 and 6), octopamine fitted from 10^−9 M to 3 × 10^−6 M, read-out: EC50 (half-maximal reduction of cAMP / activation), typical experiment.
The mark [12] stands for this setting: block of the action of octopamine, second value of the pair, read-out: IC50.
[13] abbreviates: tyramine-activated (10 µM tyramine), 10 µM NKH 477, 100 µM IBMX, read-out: IC50 [M], mean value for half-maximal inhibition.
[14] abbreviates: log IC50 ± SD, log of IC50 in M, octopamine-activated (3 × 10^−7 M octopamine).

“Also recorded” adds a separate entry of the source. Read-outs that look alike come from different tables or passages of the source.

T1 sequence (A0A7M7FZR9 entry or part of it): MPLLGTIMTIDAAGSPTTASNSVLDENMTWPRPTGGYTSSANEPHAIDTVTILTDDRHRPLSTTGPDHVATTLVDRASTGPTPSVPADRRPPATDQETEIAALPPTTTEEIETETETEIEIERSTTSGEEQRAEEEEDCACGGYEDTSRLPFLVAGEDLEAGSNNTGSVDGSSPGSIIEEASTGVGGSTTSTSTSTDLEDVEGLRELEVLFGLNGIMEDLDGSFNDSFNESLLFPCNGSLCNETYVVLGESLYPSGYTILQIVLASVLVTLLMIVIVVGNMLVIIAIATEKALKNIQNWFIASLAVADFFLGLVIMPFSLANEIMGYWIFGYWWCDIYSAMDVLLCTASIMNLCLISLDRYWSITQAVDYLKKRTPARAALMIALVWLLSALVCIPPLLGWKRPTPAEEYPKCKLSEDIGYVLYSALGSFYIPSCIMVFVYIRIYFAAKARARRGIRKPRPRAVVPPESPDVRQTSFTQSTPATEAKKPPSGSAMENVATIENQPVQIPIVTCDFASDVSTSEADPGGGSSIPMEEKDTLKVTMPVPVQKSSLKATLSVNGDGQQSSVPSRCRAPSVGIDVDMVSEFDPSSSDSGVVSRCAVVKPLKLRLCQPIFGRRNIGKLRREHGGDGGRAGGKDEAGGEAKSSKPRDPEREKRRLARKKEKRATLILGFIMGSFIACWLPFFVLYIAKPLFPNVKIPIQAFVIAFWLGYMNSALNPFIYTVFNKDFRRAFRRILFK

Regarding `NCCc1c[nH]c2ccc(O)cc12` [serotonin, 5-hydroxytryptamine], the EC50 with DmOctα2R is 1040 nM. In addition, at AmOctα2R-HA [1], the “activation of AmOctα2R” value is “failed to activate” and the “effect on NKH 477-stimulated cAMP production (Ca2+-dependent fluorescence signal)” value (“effect” for short) is listed as “no effect”.
On to `O=C(c1ccc(F)cc1)C1CCN(CCn2c(=O)[nH]c3ccccc3c2=O)CC1` [ketanserin], for which the values for the IC50 at AmOctα2R-HA [2] (setting [5]) and on AmOctα2R-HA [3] (setting [6]) were 324 nM and 5.13e-07 M, respectively. Also, at AmOctα2R-HA [3] (setting [7]), the “Maximal Inhibition [%]” value amounted to 17.11%.
For `NC1=NCC2c3ccccc3Cc3ccccc3N12` (stereo not drawn) [epinastine], the IC50 at AmOctα2R-HA [2] (setting [5]) is 16.2 nM; at AmOctα2R-HA [3] (setting [6]), 1.78e-08 M. Further, on AmOctα2R-HA [3] (setting [7]), the “Maximal Inhibition [%]” value is 17.31%.
`Cc1nn(C)c(C)c1-c1cccc2c1CC[C@H](N(C)C)C2` [AS-19]: on AmOctα2R-HA [3] (tyramine-activated (10 µM tyramine), 10 µM NKH 477, 100 µM IBMX), the “IC50 [M], mean value for half-maximal inhibition” value is recorded as “did not show any effect; also recorded: no effect”.
Turning to `NCCc1ccc(O)cc1` [tyramine], the “change in the fluorescence signal upon application” value in experiment [4] is “no change in the fluorescence signal”. Further, the “effect” value on AmOctα2R-HA [1] is “decrease in the Ca^2+-dependent fluorescence signal”. The EC50 on AmOctα2R-HA [1] (setting [8]) was 1.66e-06 M; on AmOctα2R-HA [1] (setting [9]), 1.63e-06 M; at AmOctα2R-HA [1] (setting [10]), 1.85e-06 M; on AmOctα2R-HA [1] (setting [11]) it was 1.63e-06 M. The Emax at AmOctα2R-HA [1] (saturated at tyramine concentration of ≥3 × 10^−5 M, relative to 10 µM NKH 477 (=100%), read-out: reduction of cAMP signal at saturation) is ~17%.
With `Cc1ccc(N(CC2=NCCN2)c2cccc(O)c2)cc1` [phentolamine], the IC50 at AmOctα2R-HA [2] (setting [12]) is 8.21 nM; at AmOctα2R-HA [2] (setting [5]) it was 8.13 nM; on AmOctα2R-HA [3] (setting [6]) it was 5.01e-09 M; on AmOctα2R-HA [3] (setting [13]) it was 5.6e-09 M. The “Maximal Inhibition [%]” value at AmOctα2R-HA [3] (setting [7]) was 16.1%.
In the case of `COC(=O)[C@@H]1[C@H]2C[C@H]3c4[nH]c5ccccc5c4CCN3C[C@@H]2CC[C@@H]1O` [yohimbine], the IC50 against AmOctα2R-HA [2] (setting [14]) is 363 nM; on AmOctα2R-HA [3] it was 7.59e-08 M. At AmOctα2R-HA [3] (setting [7]), the “Maximal Inhibition [%]” value came out at 14.3%.
On to `NCC(O)c1ccc(O)cc1` (stereo not drawn) [octopamine], for which the “octopamine concentration leading to an increase in Fluo-4 fluorescence” value in experiment [4] (in the presence of NKH 477) is ≥ 300 nM. Also, at AmOctα2R-HA [1] (AmOctα2R-HA-expressing flpTM cells, U-shaped curve, 10 µM NKH 477, 100 µM IBMX), the “octopamine concentration at which an increase in the fluorescence signal was observed” value is ≥ 3 µM. For the same molecule, the Emax at 1 µM at AmOctα2R-HA [1] (at 10^−6 M octopamine, relative to 10 µM NKH 477 (=100%), read-out: maximal reduction of cAMP synthesis) was ~25%. Besides, at AmOctα2R-HA [1], the “effect” value was “decrease in the Ca^2+-dependent fluorescence signal”. In addition, the EC50 at AmOctα2R-HA [1] (setting [8]) is 3.72e-08 M; on AmOctα2R-HA [1] (setting [9]), 1.17e-07 M; at AmOctα2R-HA [1] (setting [10]), 5.87e-08 M; on AmOctα2R-HA [1] (setting [11]) it was 1.17e-07 M. At AmOctα2R-HA [1] (ratio of EC50 values), the “specificity for octopamine over tyramine (difference in EC50)” value is on record as ~ 30 fold.
With `NCCc1ccc(O)c(O)c1` [dopamine], on AmOctα2R-HA [1], the “effect” value is on record as “no effect”.
On to `COc1ccc2[nH]cc(CCN)c2c1` [5-MT, 5-methoxytryptamine], for which the IC50 at AmOctα2R-HA [2] (IC50, block of the action of octopamine, second value of the pair) is 836 nM; on AmOctα2R-HA [2] (setting [14]), 832 nM; on AmOctα2R-HA [3] (IC50, block of the action of tyramine, first value of the printed pair) it was 2.06e-08 M; against AmOctα2R-HA [3] (logIC50 ± SD, log of IC50 in M, tyramine-activated (10 µM tyramine)), 1.91e-08 M. Further, the “Maximal Inhibition [%]” value on AmOctα2R-HA [3] (setting [7]) was 20.3%.
With `NCCc1c[nH]c2ccc(C(N)=O)cc12` [5-CT, 5-carboxamidotryptamine], the IC50 on AmOctα2R-HA [2] (setting [12]) amounted to 0.27 nM; at AmOctα2R-HA [3] (setting [13]), 4.16e-09 M. On AmOctα2R-HA [2] (log of IC50 in M, octopamine-activated (3 × 10^−7 M octopamine)), the “log IC50 ± SD” value is listed as -9.57 ± 0.21. The “logIC50 ± SD” value at AmOctα2R-HA [3] (log of IC50 in M, tyramine-activated (10 µM tyramine)) is listed as −8.48 ± 0.20. The “Maximal Inhibition [%]” value on AmOctα2R-HA [3] (setting [7]) came out at 10.8%.
As for `CCCN(CCC)C1CCc2cccc(O)c2C1` (stereo not drawn) [8-OH-DPAT, 8-Hydroxy-2-(dipropylamino)tetralin], the IC50 is 166 nM against AmOctα2R-HA [2] (setting [14]) and 7.08e-07 M against AmOctα2R-HA [3]. Moreover, on AmOctα2R-HA [3] (setting [7]), the “Maximal Inhibition [%]” value is recorded as 7.21%.
